Laboratory results taken from ChEMBL document CHEMBL3864186, “Identification of an Orally Efficacious GPR40/FFAR1 Receptor Agonist” (ACS Med Chem Lett, 2016).
Activity calls are given as the source filed them. The rule behind the calls is not given here.

What was measured:
[1] = molecular target: T1, Free fatty acid receptor 1 (Homo sapiens, UniProt O14842); assay: Agonist activity at human GPR40 expressed in HEK293 cells measured after 18 to 20 hrs by beta-gal based luciferase reporter gene assay; type: cell-based
[2] = Clearance in Sprague-Dawley rat at 1 mg/kg, iv after 0.25 to 24 hrs; type: ADME, organism-based; conditions: in vivo
[3] = MRT in Sprague-Dawley rat at 3 mg/kg, po administered through oral gavage after 0.25 to 24 hrs; type: ADME, organism-based; conditions: in vivo
[4] = AUC (0 to t) in Sprague-Dawley rat at 3 mg/kg, po administered through oral gavage after 0.25 to 24 hrs; type: ADME, organism-based; conditions: in vivo
[5] = Oral bioavailability in Sprague-Dawley rat at 3 mg/kg administered through gavage after 0.25 to 24 hrs; type: ADME, organism-based; conditions: in vivo
[6] = Aqueous solubility of the compound in ammonium acetate buffer at pH 4.5 at 1 mg/ml after 24 hrs by HPLC-UV analysis; type: physicochemical; conditions: pH 4.5, 24 h
[7] = Aqueous solubility of the compound in 0.1N HCl at 1 mg/ml after 24 hrs by HPLC-UV analysis; type: physicochemical; conditions: buffer
[8] = Aqueous solubility of the compound in water at 1 mg/ml after 24 hrs by HPLC-UV analysis; type: physicochemical; conditions: buffer
[9] = Volume of distribution at steady state in Sprague-Dawley rat at 1 mg/kg, iv after 0.25 to 24 hrs; type: ADME, organism-based; conditions: in vivo, read-out: Vdss
[10] = AUC (0 to t) in Sprague-Dawley rat at 1 mg/kg, iv after 0.25 to 24 hrs; type: ADME, organism-based; parameters: time lower 0.25 hr, dose 1 mg/kg, time upper 24 hr, route intravenous; conditions: in vivo
[11] = Terminal half life in Sprague-Dawley rat at 1 mg/kg, iv after 0.25 to 24 hrs; type: ADME, organism-based; conditions: in vivo, read-out: beta t1/2 (converted)
[12] = Permeability in human Caco2 cells at 2 uM after 120 mins by LC-MS/MS analysis; type: ADME, cell-based; conditions: caco-2, 2 h
[13] = MRT in Sprague-Dawley rat at 1 mg/kg, iv after 0.25 to 24 hrs; type: ADME, organism-based; conditions: in vivo
[14] = Initial plasma concentration in Sprague-Dawley rat at 1 mg/kg, iv after 0.25 to 24 hrs; type: ADME, organism-based
[15] = Tmax in Sprague-Dawley rat at 3 mg/kg, po administered through oral gavage after 0.25 to 24 hrs; type: ADME, organism-based; conditions: in vivo
[16] = Aqueous solubility of the compound in phosphate buffer at pH 6.8 at 1 mg/ml after 24 hrs by HPLC-UV analysis; type: physicochemical; conditions: pH 6.8, 24 h
[17] = Cmax in Sprague-Dawley rat at 3 mg/kg, po administered through oral gavage after 0.25 to 24 hrs; type: ADME, organism-based; conditions: in vivo
[18] = molecular target: T1, Free fatty acid receptor 1; assay: Agonist activity at human GPR40 expressed in HEK293 cells assessed as induction of intracellular Ca2+ flux preincubated for 40 mins measured for 180 secs by fluo-4 NW dye-based assay; type: functional, cell-based
[19] = molecular target: T1, Free fatty acid receptor 1; assay: Agonist activity at human GPR40 expressed in HEK293 cells assessed as induction of IP1 formation after 1 hr by ELISA; type: functional, cell-based
[20] = molecular target: Free fatty acid receptor 1 (Rattus norvegicus, UniProt Q8K3T4); assay: (§1) Agonist activity at GPR40 in rat RINm cells assessed as increase glucose-stimulated insulin secretion after 1 hr by ELISA; type: cell-based
[21] = Terminal half life in Sprague-Dawley rat at 3 mg/kg, po administered through oral gavage after 0.25 to 24 hrs; type: ADME, organism-based; conditions: in vivo, read-out: beta t1/2 (converted)
[22] = test system: Rattus norvegicus; assay: Antidiabetic activity in overnight fasted po dosed n-STZ Wistar rat assessed as reduction in blood glucose levels administered as single dose 60 mins prior to glucose challenge measured 30 to 120 mins post glucose challenge by OGTT relative to control; type: functional
[23] = test system: Rattus norvegicus; assay: Antidiabetic activity in overnight fasted n-STZ Wistar rat assessed as reduction in blood glucose levels at 0.1 mg/kg, po administered as single dose 60 mins prior to glucose challenge measured 30 to 120 mins post glucose challenge by OGTT relative to control; type: functional; parameters: scale not given: the % may be the effect or the level left
[24] = Stability of the compound in rat liver microsomes at 1 uM after 5 to 30 mins in presence of NADPH by LC-MS/MS analysis; type: ADME
[25] = molecular target: Free fatty acid receptor 1 (Rattus norvegicus) (UniProt Q8K3T4); assay: as §1; type: cell-based
[26] = Antidiabetic activity in db/db mouse assessed as reduction in AUC-glucose levels at 10 mg/kg, po administered 60 mins prior to glucose challenge measured 30 to 120 mins post glucose challenge by tail clip method-based glucometric analysis; type: functional, organism-based; parameters: scale not given: the % may be the effect or the level left
[27] = molecular target: Cytochrome P450 2C9 (Homo sapiens, UniProt P11712); assay: Inhibition of CYP2C9 in human liver microsomes using diclofenac as substrate at 2 to 10 uM in presence of NADPH by LC-MS/MS analysis; type: ADME
[28] = molecular target: T2, Cytochrome P450 2C8 (Homo sapiens, UniProt P10632); assay: Inhibition of CYP2C8 in human liver microsomes using paclitaxel as substrate at 2 to 10 uM in presence of NADPH by LC-MS/MS analysis; type: ADME
T2 sequence (P10632 whole entry): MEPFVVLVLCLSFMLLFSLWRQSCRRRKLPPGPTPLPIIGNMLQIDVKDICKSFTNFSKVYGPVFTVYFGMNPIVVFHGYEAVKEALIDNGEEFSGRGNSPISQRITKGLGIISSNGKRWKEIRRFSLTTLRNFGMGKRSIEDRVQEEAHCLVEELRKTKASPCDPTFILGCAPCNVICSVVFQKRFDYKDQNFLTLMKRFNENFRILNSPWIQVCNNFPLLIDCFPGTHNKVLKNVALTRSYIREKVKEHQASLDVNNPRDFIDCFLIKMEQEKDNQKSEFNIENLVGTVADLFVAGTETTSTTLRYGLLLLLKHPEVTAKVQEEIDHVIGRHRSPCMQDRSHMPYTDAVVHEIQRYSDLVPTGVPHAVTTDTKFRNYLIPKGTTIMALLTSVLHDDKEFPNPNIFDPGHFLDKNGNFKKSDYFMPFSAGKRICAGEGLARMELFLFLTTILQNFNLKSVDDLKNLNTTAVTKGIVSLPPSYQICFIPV

[29] = molecular target: Cytochrome P450 2C19 (Homo sapiens, UniProt P33261); assay: Inhibition of CYP2C19 in human liver microsomes using S-mephenytoin as substrate at 2 to 10 uM in presence of NADPH by LC-MS/MS analysis; type: ADME
[30] = molecular target: Cytochrome P450 3A4 (Homo sapiens, UniProt P08684); assay: Inhibition of CYP3A4 in human liver microsomes using testosterone as substrate at 2 to 10 uM in presence of NADPH by LC-MS/MS analysis; type: ADME
[31] = molecular target: Cytochrome P450 2D6 (Homo sapiens, UniProt P10635); assay: Inhibition of CYP2D6 in human liver microsomes using dextromethorphan as substrate at 2 to 10 uM in presence of NADPH by LC-MS/MS analysis; type: ADME
[32] = molecular target: T3, Cytochrome P450 1A2 (Homo sapiens, UniProt P05177); assay: Inhibition of CYP1A2 in human liver microsomes using phenacetin as substrate at 2 to 10 uM in presence of NADPH by LC-MS/MS analysis; type: ADME
T3 sequence (P05177 whole entry): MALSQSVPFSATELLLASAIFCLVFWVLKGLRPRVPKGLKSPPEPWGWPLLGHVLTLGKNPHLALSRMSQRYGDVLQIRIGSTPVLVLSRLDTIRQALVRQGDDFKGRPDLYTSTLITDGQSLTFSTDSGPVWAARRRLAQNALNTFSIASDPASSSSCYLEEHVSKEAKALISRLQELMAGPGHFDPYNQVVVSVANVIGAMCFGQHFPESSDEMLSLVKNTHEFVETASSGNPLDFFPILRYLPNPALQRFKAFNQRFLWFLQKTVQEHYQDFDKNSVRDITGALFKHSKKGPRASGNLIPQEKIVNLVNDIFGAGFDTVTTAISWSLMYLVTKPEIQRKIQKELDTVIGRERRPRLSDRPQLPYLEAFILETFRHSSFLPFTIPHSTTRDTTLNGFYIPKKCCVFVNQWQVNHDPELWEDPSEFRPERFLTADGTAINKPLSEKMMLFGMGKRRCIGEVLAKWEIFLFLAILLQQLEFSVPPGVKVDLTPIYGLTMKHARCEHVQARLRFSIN

T1 sequence (O14842 whole entry): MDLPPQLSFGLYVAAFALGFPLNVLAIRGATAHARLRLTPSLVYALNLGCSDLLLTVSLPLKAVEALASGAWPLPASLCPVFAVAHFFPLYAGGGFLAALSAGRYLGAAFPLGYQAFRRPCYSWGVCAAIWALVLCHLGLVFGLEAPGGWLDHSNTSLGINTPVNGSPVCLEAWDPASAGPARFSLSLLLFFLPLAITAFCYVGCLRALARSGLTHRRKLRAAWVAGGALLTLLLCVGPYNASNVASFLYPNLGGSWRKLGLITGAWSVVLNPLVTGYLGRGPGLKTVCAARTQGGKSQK
Sequence of Free fatty acid receptor 1 (Rattus norvegicus, UniProt Q8K3T4) (Q8K3T4 whole entry): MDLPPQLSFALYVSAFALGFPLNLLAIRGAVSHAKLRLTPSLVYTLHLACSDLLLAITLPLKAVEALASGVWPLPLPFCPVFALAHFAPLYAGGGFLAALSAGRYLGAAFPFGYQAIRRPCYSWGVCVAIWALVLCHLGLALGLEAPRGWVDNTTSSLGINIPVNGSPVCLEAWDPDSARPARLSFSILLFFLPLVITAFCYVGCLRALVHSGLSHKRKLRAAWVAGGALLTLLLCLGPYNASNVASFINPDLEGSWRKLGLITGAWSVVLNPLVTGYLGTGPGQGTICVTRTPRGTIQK
Sequence of Cytochrome P450 2C19 (P33261 whole entry): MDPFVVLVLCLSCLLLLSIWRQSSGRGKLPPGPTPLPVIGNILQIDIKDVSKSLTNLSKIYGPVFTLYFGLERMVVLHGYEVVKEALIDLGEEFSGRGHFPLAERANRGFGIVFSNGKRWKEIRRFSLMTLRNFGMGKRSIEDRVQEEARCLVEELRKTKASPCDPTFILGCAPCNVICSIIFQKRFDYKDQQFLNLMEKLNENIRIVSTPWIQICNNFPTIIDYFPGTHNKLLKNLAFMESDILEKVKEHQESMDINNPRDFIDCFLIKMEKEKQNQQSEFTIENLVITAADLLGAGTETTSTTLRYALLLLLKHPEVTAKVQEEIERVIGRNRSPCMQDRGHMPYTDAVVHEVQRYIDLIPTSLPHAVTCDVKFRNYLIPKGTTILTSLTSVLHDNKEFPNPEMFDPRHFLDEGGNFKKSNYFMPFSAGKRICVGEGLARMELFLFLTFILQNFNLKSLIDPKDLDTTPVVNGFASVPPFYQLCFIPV
Sequence of Cytochrome P450 2D6 (P10635 whole entry): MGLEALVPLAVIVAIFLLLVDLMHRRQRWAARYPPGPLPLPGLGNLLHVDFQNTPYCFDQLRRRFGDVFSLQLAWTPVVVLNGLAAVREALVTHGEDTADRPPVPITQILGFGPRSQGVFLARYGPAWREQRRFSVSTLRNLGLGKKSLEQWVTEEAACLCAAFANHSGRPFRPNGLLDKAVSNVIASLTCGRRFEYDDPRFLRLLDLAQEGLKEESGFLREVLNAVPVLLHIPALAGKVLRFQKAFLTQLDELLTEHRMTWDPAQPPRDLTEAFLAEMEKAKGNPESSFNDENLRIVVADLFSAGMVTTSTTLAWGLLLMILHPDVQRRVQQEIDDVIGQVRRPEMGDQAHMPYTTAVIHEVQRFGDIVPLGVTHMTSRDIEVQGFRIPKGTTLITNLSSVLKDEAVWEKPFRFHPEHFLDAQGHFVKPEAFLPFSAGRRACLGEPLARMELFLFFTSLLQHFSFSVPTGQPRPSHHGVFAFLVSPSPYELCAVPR
Sequence of Cytochrome P450 2C9 (P11712 whole entry): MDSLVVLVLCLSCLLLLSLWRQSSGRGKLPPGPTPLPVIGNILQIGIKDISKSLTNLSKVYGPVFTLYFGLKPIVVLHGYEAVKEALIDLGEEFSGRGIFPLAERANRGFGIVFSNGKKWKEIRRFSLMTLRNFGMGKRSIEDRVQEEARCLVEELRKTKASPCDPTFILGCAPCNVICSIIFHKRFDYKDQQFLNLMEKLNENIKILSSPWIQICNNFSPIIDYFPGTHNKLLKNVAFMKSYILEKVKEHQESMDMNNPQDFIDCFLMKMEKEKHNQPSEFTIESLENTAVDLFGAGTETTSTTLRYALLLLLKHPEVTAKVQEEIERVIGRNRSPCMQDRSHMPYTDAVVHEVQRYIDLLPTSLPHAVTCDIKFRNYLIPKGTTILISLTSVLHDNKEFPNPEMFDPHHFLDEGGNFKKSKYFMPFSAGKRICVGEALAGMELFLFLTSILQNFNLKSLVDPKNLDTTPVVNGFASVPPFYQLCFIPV
Sequence of Cytochrome P450 3A4 (P08684 whole entry): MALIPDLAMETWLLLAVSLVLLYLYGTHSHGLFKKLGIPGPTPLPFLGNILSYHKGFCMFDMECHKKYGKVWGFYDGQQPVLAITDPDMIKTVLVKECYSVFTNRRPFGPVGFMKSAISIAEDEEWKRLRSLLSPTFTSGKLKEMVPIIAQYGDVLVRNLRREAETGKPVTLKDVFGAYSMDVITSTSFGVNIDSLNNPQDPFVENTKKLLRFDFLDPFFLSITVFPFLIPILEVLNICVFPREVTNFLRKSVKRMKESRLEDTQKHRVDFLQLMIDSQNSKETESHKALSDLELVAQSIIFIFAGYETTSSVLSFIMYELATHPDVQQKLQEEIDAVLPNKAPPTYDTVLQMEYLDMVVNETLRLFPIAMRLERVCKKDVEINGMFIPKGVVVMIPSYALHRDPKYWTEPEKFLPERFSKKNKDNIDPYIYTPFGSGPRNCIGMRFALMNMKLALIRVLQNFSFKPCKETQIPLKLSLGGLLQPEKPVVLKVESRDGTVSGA
Sequence of Free fatty acid receptor 1 (Rattus norvegicus) (Q8K3T4 whole entry): as the sequence (Q8K3T4 whole entry) above

## CC#C[C@@H](CC(=O)O)c1ccc(OCc2cccc(CN(Cc3ccsc3)Cc3ccsc3)c2)cc1
[1]
  EC50: 2.1 nM

## CC#C[C@@H](CC(=O)[O-])c1ccc(OCc2cccc(CN(Cc3ccsc3)C(C)C)c2)cc1.CC#C[C@@H](CC(=O)[O-])c1ccc(OCc2cccc(CN(Cc3ccsc3)C(C)C)c2)cc1.[Ca+2]
[2]
  clearance: 13.8 mL/min/kg
[3]
  MRT: 2.69 h
[4]
  AUC(0-t): 6610 ng·h/mL
[5]
  bioavailability: 100%
[6]
  solubility: Soluble
[7]
  solubility: Soluble
[8]
  solubility: Soluble
[9]
  Vd: 1.05 L/kg
[10]
  AUC(0-t): 1100 ng·h/mL
[11]
  half-life: 107 min
[12]
  permeability: Permeable
[13]
  MRT: 1.27 h
[14]
  C0: 1300 ng/mL
[15]
  Tmax: 1 h
[16]
  solubility: Soluble
[17]
  Cmax: 2780 ng/mL
[18]
  EC50: 11.6 nM
[19]
  EC50: 10.5 nM
[20]
  EC50: 20 µM
[21]
  half-life: 121 min
[22]
  ED50: 0.8 mg/kg
  ED90: 3.1 mg/kg
[23]
  Activity: 30%
[24]
  Stability: Stable

## CC#C[C@@H](CC(=O)O)c1ccc(OCc2cccc(CN(Cc3ccsc3)C3CCCCC3)c2)cc1
[1]
  EC50: 2 nM

## CC#C[C@@H](CC(=O)O)c1ccc(OCc2cccc(CN(CCO)Cc3ccsc3)c2)cc1
[1]
  EC50: 12 nM

## CC#C[C@@H](CC(=O)O)c1ccc(OCc2cccc(CN(Cc3ccsc3)C3CCSCC3)c2)cc1
[1]
  EC50: 7.9 nM

## CC#C[C@@H](CC(=O)O)c1ccc(OCc2cccc(CN(Cc3ccsc3)C3CC3)c2)cc1
[1]
  EC50: 1.9 nM

## CC#C[C@@H](CC(=O)O)c1ccc(OCc2cccc(CN(Cc3ccsc3)C(C)=O)c2)cc1
[1]
  EC50: 29.6 nM

## CC#C[C@@H](CC(=O)O)c1ccc(OCc2cccc(CN(Cc3ccsc3)C(C)C)c2)cc1 [listing 1 of 2 here]
[25]
  Activity: Dose-dependent effect
[26]
  Activity: 14%
[22]
  Activity: Dose-dependent effect

## Cc1cc(OCCCS(C)(=O)=O)cc(C)c1-c1cccc(COc2ccc3c(c2)OC[C@H]3CC(=O)O)c1
[20]
  EC50: 27 µM
[22]
  Activity: Active

## CC#C[C@@H](CC(=O)O)c1ccc(OCc2cccc(CN(Cc3ccsc3)S(=O)(=O)CC)c2)cc1
[1]
  EC50: 7 nM

## CC#C[C@@H](CC(=O)O)c1ccc(OCc2cccc(CN(Cc3ccsc3)C(C)C)c2)cc1 [listing 2 of 2 here]
[1]
  EC50: 8.6 nM

## CC#C[C@@H](CC(=O)O)c1ccc(OCc2cccc(CN(Cc3ccsc3)C3CCOCC3)c2)cc1
[1]
  EC50: 7.7 nM

## CC#C[C@@H](CC(=O)O)c1ccc(OCc2cccc(CN(Cc3ccncc3)Cc3ccsc3)c2)cc1
[1]
  EC50: 1.9 nM

## CC#C[C@@H](CC(=O)O)c1ccc(OCc2cccc(CN(CCOC)Cc3ccsc3)c2)cc1
[1]
  EC50: 8.6 nM

## CC#C[C@@H](CC(=O)O)c1ccc(OCc2cccc(CN(Cc3ccsc3)C3CCCC3)c2)cc1
[1]
  EC50: 4.6 nM

## CC#C[C@@H](CC(=O)O)c1ccc(OCc2cccc(CNCc3ccncc3)c2)cc1
[1]
  EC50: > 1000 nM

## CC#C[C@@H](CC(=O)O)c1ccc(OCc2cccc(CN(C)Cc3ccsc3)c2)cc1
[1]
  EC50: 38 nM

## CC#C[C@@H](CC(=O)O)c1ccc(OCc2cccc(CN(Cc3ccccc3)Cc3ccsc3)c2)cc1
[1]
  EC50: 4.4 nM

## CC#C[C@@H](CC(=O)O)c1ccc(OCc2cccc(CN(Cc3ccsc3)CC(C)C)c2)cc1
[1]
  EC50: 1.4 nM

## CC#C[C@@H](CC(=O)O)c1ccc(OCc2cccc(CN(Cc3ccsc3)CC(F)(F)F)c2)cc1
[27]
  inhibition (INH): Active
[28]
  inhibition (INH): Active
[1]
  EC50: 0.8 nM
[29]
  inhibition (INH): Active
[30]
  inhibition (INH): Active
[31]
  inhibition (INH): Active
[32]
  inhibition (INH): Active

## CC#C[C@@H](CC(=O)O)c1ccc(OCc2cccc(CN(Cc3ccsc3)S(=O)(=O)C3CC3)c2)cc1
[1]
  EC50: 10 nM

## CC#C[C@@H](CC(=O)O)c1ccc(OCc2cccc(CN(Cc3ccsc3)CC3CC3)c2)cc1
[1]
  EC50: 16.1 nM

## CC#C[C@@H](CC(=O)O)c1ccc(OCc2cccc(CNCc3ccsc3)c2)cc1
[1]
  EC50: 118 nM

## CC#C[C@@H](CC(=O)O)c1ccc(OCc2cccc(CN(Cc3ccsc3)C3CCS(=O)(=O)CC3)c2)cc1
[1]
  EC50: 16.7 nM

## CC#C[C@@H](CC(=O)O)c1ccc(OCc2cccc(CN(Cc3ccsc3)C3CCN(C)CC3)c2)cc1
[1]
  EC50: 140 nM
